Measured values published in patent publication US20030162777A1, “Novel N-acylated heterocycles” (Recordati S.A., priority 2001, published 2003).
pKi: −log10 of the molar value.

How the values were obtained:
[1] = molecular target: T1, human 5HT1A-serotonergic receptor (Homo sapiens, UniProt P08908); assay: Radioligand binding to recombinant 5-HT1A receptors; settings: [3H]8-OH-DPAT 1 nM, membranes of HeLa cells with human 5-HT1A receptor; Ki from IC50 by Cheng & Prusoff; read-out: Binding affinity for 5HT1A receptors, Ki
T1 construct: expressed in transfected cells; host or cells: HeLa (human cell line), stably transfected; cell membranes used
T1 sequence (P08908 1-422): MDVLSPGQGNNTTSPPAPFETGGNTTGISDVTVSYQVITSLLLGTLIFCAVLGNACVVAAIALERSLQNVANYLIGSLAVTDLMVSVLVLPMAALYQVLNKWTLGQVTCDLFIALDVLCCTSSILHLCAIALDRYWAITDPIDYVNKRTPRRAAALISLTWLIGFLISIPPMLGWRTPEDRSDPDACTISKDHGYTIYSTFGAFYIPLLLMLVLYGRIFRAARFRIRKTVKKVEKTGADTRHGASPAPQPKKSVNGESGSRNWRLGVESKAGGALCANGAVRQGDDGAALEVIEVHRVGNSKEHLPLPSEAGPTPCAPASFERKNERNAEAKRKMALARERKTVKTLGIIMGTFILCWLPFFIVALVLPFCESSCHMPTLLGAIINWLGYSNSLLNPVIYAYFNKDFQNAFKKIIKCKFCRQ
In short: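 Displacement of 1 nM [3H]8-OH-DPAT (30 min, 30 °C, Tris-HCl pH 7.4 with MgCl2 and pargyline) from recombinant human 5-HT1A in transfected HeLa membranes, stopped by filtration. Specific binding defined against 10 μM 5-HT; IC50 by nonlinear fitting, then Ki by Cheng–Prusoff.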

anaesthetised rats = assay: Effects on rhythmic bladder-voiding contractions induced by bladder filling in anaesthetised rats; type: in vivo, rat; settings: intravenous administration, urethane-anaesthetised rats; for ED50: Rattus norvegicus, read-out: ED50 frequency (extrapolated dose inducing a reduction of the number of contractions >30% in 50% of treated rats)
Method: Female Sprague-Dawley rats weighing 225-275 g (Crl: CDo Br, Charles River Italia) were used. The animals were housed with free access to food and water and maintained on a forced 12-hour alternating light-dark cycle at 22-24° C. for at least one week, except during the experiment. The activity on rhythmic bladder voiding contractions was evaluated according to the method of Dray (Dray J., Pharmacol. Methods, 13:157, 1985), with some modifications as in Guarneri (Guarneri, Pharmacol. Res. 27:173, 1993). Briefly, the rats were anaesthetised by subcutaneous injection of 1.25 g/kg (5 ml/kg) urethane, after which the urinary bladder was catheterised via the urethra using PE 50 polyethylene tubing filled with physiological saline. The catheter was tied in place with a ligature around the external urethral orifice and was connected to conventional pressure transducers (Statham P23 ID/P23 XL). […] The bladder was then filled via the recording catheter by incremental volumes of warm (37° C.) saline until reflex bladder-voiding contractions occurred (usually 0.8-1.5 ml). For intravenous injection of bioactive compounds, PE 50 polyethylene tubing filled with physiological saline was inserted into the jugular vein.
From the cystometrogram, the number of contractions recorded 15 minutes before (basal values) and after treatment, as well as the mean amplitude of these contractions (mean height of the peaks in mmHg), was evaluated.
Since most compounds produced an effect that was relatively rapid in onset and led to a complete cessation of bladder contractions, bioactivity was conveniently estimated by measuring the duration of bladder quiescence (i.e. the length of the time during which no contractions occurred). The number of tested animals showing a reduction in the number of contractions higher than 30% of that observed in the basal period was recorded too.
The extrapolated doses which induced a reduction in the number of contractions greater than 30% in 50% of the treated rats (ED50) were evaluated by the method of Bliss (Bliss C. I., Quart J. Pharm. Pharmacol. 11, 192-216, 1938).

5-HT1A receptors = molecular target: T2, 5-HT1A receptors (Rattus norvegicus, UniProt P19327); assay: Inhibition of stereotypy (rhythmic forepaw treading) induced by 8-OH-DPAT in rats (post-synaptic antagonism); type: in vivo; settings: for post-synaptic 5-HT1A-receptor antagonist activity (in words) / inhibition at 1 mg/kg: 1 mg/kg p.o.; for post-synaptic 5-HT1A-receptor antagonist activity (in words): rats; for inhibition at 1 mg/kg / inhibition at 10 mg/kg: rat; for inhibition at 10 mg/kg: 10 mg/kg p.o.
T2 construct: from tissue; host or cells: whole animal: male Sprague-Dawley rats (post-synaptic 5-HT1A receptors)
T2 sequence (P19327 1-422): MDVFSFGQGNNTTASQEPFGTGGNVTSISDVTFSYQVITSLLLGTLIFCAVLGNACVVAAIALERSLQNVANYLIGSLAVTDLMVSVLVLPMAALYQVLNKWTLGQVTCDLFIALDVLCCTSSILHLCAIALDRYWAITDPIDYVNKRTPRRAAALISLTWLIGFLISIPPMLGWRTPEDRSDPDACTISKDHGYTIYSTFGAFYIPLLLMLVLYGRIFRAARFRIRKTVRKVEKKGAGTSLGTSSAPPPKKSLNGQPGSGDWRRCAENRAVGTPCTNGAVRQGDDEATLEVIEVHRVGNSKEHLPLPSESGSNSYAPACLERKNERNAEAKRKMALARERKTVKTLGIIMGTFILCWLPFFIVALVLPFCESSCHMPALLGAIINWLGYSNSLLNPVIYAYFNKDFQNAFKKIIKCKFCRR
Method: The inhibitory effect of 5-HT1A-receptor antagonists on stereotyped forepaw treading induced in rats by subcutaneous injection of 8-OH-DPAT was evaluated by the method of Tricklebank (Tricklebanket al., Eur. J. Pharmacol., 117: 15, 1985) with minor modifications as described below.
Male Sprague-Dawley rats [Crl: CD° (SD) BR] weighing 150-175 g from Charles River Italia were used. The animals were housed with free access to food and water and maintained on a forced 12-hour-light/12-hour-dark cycle at 22-24° C. of temperature. On the day of the experiment, the rats were placed singly in clear plastic containers, 10-15 minutes before administration of the vehicle or compounds to be tested. For evaluation of antagonistic activity after oral administration, the compounds were administered 0.5, 1 and 4 hours before induction of stereotypy by 8-OH-DPAT (1 mg/kg subcutaneously). Observation sessions lasted 30 seconds and began 3 minutes after 8-OH-DPAT treatment and were repeated every 3 minutes over a period of 15 minutes.
The appearance of the symptom induced by postsynaptic stimulation of 5-HT1A receptors was noted, and the intensity was scored using an intensity scale in which: 0=absent, 1=equivocal, 2=present and 3=intense. Behavioural scores for treated rats were accumulated throughout the observation time (5 observation periods) and expressed as mean values of 4 rats/dose. Change in mean values of treated animals in comparison with control (vehicle) group, expressed as per-cent inhibition, was used in order to quantify the antagonistic activity.

[2] = 0.5 h before 8-OH-DPAT (1 mg/kg s.c.)
[3] = 1 h before 8-OH-DPAT (1 mg/kg s.c.)
[4] = 4 h before 8-OH-DPAT (1 mg/kg s.c.)

| pKi [1] | inhibition at 1 mg/kg (5-HT1A receptors; [2]) | inhibition at 1 mg/kg (5-HT1A receptors; [3]) | inhibition at 1 mg/kg (5-HT1A receptors; [4]) | inhibition at 10 mg/kg (5-HT1A receptors; [2]) | inhibition at 10 mg/kg (5-HT1A receptors; [3]) | inhibition at 10 mg/kg (5-HT1A receptors; [4]) | SMILES | ED50 (anaesthetised rats) | ED10 min (extrapolated dose inducing 10 minutes of disappearance of the contractions) (anaesthetised rats) | post-synaptic 5-HT1A-receptor antagonist activity (in words) (5-HT1A receptors) |
| --- | --- | --- | --- | --- | --- | --- | --- | --- | --- | --- |
| 9.70 | 100% | 100% | 98% | – | – | – | O=C(C1CCCCC1)N1c2ccccc2CCC1CN1CCN(c2cccc3[nH]ccc23)CC1 (single isomer, unassigned; (+)) [Example (+)-1, (+)-1-(1-Cyclohexanecarbonyl-1,2,3,4-tetrahydroquinoline-2-ylmethyl)-4-(4-indolyl)piperazine] | 0.024 mg/kg | 0.072 mg/kg | significant and complete inhibition of the symptom up to 4 hours after administration |
| 8.27 | – | – | – | 100% | 93% | 100% | O=C(C1CCCC1)N1c2ccccc2CCC1CN1CCN(c2cccc3[nH]ccc23)CC1 (stereo not shown) [Example 24A3, 1-(1-Cyclopentanecarbonyl-1,2,3,4-tetrahydroquinoline-2-ylmethyl)-4-(4-indolyl)piperazine] | – | – | – |
| 8.55 | – | – | – | 98% | 92% | 92% | O=C(C1CCCCC1)N1c2ccc(F)cc2CCC1CN1CCN(c2cccc3[nH]ccc23)CC1 (stereo not shown) [Example 18, 1-(1-Cyclohexanecarbonyl-6-fluoro-1,2,3,4-tetrahydroquinoline-2-ylmethyl)-4-(4-indolyl)piperazine] | – | – | – |
| 9.52 | – | – | – | – | – | – | COc1ccccc1N1CCN(CC2CCc3ccccc3N2C(=O)C2CCCCC2)CC1 (stereo not shown) [Example 2, 1-(1-Cyclohexanecarbonyl-1,2,3,4-tetrahydroquinoline-2-ylmethyl)-4-(2-methoxyphenyl)piperazine] | 0.172 mg/kg | 0.383 mg/kg | – |
| – | 19% | 5% | 9% | – | – | – | O=C(C1CCCCC1)N1c2ccccc2CCC1CN1CCN(c2cccc3[nH]ccc23)CC1 (single isomer, unassigned; (-)) [(−)-1, (−)-1-(1-Cyclohexanecarbonyl-1,2,3,4-tetrahydroquinoline-2-ylmethyl)-4-(4-indolyl)piperazine] | – | – | devoid of activity |
| 8.08 | – | – | – | – | – | – | COc1ccccc1N1CCN(CCC2CCc3ccccc3N2C(=O)C2CCCCC2)CC1 (stereo not shown) [Example 3, 1-[2-(1-Cyclohexanecarbonyl-1,2,3,4-tetrahydroquinoline-2-yl)ethyl]-4-(2-methoxyphenyl)piperazine] | 0.02 mg/kg | 0.08 mg/kg | – |
| 8.40 | – | – | – | – | 95% | 100% | Cc1[nH]c2cccc(N3CCN(CC4CCc5ccccc5N4C(=O)C4CCCCC4)CC3)c2c1C (stereo not shown) [Example 35A13, 1-(1-Cyclohexanecarbonyl-1,2,3,4-tetrahydroquinoline-2-ylmethyl)-4-(2,3-dimethyl-4-indolyl)piperazine] | – | – | – |
| 8.59 | – | – | – | 100% | 100% | 100% | O=C(C1CC=CCC1)N1c2ccccc2CCC1CN1CCN(c2cccc3[nH]ccc23)CC1 (stereo not shown) [Example 24A1, 1-(1-Cyclohex-3-enylcarbonyl-1,2,3,4-tetrahydroquinoline-2-ylmethyl)-4-(4-indolyl)piperazine] | – | – | – |
| – | – | – | – | – | – | – | Cc1c(-c2ccccc2)oc2c(C(=O)OCCN3CCCCC3)cccc2c1=O [Flavoxate, flavoxate, reference compound] | 2.65 mg/kg | >10 mg/kg | – |
